{"source": "paper PMC8668183", "about": "(Biomedicine & Pharmacotherapy, 2021)", "key": {"SARS-CoV-2 [1]": {"system": "SARS-CoV-2", "details": "cited from earlier work"}, "CYP1A2": {"biological_target": "T1, CYP1A2 (Homo sapiens, UniProt P05177)", "T1 sequence (P05177 1-516)": "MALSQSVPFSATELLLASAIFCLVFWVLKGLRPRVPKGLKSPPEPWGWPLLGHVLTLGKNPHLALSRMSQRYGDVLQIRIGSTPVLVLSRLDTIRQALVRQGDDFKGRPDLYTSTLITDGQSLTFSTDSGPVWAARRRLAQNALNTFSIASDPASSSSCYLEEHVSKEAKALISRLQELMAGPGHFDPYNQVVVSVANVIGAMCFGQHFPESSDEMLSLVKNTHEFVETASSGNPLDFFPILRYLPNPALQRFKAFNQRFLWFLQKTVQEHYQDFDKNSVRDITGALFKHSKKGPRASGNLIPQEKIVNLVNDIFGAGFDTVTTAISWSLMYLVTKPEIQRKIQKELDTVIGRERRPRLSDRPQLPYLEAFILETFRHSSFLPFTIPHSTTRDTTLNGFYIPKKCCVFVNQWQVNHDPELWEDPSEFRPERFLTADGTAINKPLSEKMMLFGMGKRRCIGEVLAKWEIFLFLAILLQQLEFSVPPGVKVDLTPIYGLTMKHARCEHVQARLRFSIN", "assay": "Fluorometric CYP1A2 activity assay in human liver microsomes", "assay_type": "in vitro ADME", "details": "reference inhibitor at 6 µM, human hepatic microsomes"}, "SARS-CoV-2 [2]": {"system": "SARS-CoV-2", "details": "human lung cells; cited from earlier work"}, "SARS-CoV-2 [3]": {"system": "SARS-CoV-2", "details": "human prostate cells; cited from earlier work"}, "CYP2C9": {"biological_target": "CYP2C9 (Homo sapiens, UniProt P11712)", "sequence (P11712 whole entry)": "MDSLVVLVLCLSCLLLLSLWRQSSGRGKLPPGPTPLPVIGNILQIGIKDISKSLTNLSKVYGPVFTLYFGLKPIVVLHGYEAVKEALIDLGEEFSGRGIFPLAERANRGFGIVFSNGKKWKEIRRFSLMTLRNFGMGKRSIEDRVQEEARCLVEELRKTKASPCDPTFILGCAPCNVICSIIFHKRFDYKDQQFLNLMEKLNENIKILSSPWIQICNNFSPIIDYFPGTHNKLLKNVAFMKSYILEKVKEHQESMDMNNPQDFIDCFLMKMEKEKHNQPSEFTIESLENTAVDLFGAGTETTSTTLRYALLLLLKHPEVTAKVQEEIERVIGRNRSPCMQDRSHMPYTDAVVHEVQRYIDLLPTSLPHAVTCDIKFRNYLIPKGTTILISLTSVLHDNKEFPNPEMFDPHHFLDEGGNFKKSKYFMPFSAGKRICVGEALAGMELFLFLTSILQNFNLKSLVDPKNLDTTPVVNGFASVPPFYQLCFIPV", "assay": "Fluorometric CYP2C9 activity assay in human liver microsomes", "assay_type": "in vitro ADME", "details": "reference inhibitor at 60 µM, human hepatic microsomes"}}, "note": "Counter-ions that a name gives are not always drawn. Like-named read-outs stand apart in the source and are kept apart here.", "data": [{"smiles": "N=C(N)c1ccc2cc(OC(=O)c3ccc(N=C(N)N)cc3)ccc2c1", "note": "[nafamostat mesylate]", "values": [{"measurement": "S protein-mediated fusion and SARS-CoV-2 entry into Calu-3 cells", "setting": "SARS-CoV-2 [1]", "value": "could block successfully"}]}, {"smiles": "O=c1cc(-c2ccccc2)oc2c1ccc1ccccc12", "note": "[α-naphthoflavone]", "values": [{"measurement": "effect on CYP1A2 activity", "setting": "CYP1A2", "value": "suppressed significantly"}]}, {"smiles": "CNC(=O)c1ccc(N2C(=S)N(c3ccc(C#N)c(C(F)(F)F)c3)C(=O)C2(C)C)cc1F", "note": "[enzalutamide]", "values": [{"measurement": "SARS-CoV-2 infection", "setting": "SARS-CoV-2 [2]", "value": "not in human lung cells"}, {"measurement": "SARS-CoV-2 infection", "setting": "SARS-CoV-2 [3]", "value": "suppressed mainly in human prostate cells"}]}, {"smiles": "O=C(O)COc1ccc(C(=O)c2cccs2)c(Cl)c1Cl", "note": "[tienilic acid]", "values": [{"measurement": "effect on CYP2C9 activity", "setting": "CYP2C9", "value": "inhibited"}]}]}
